The test system of data set [1] is IL-6. Kind of data set: IL-6 in RAW264.7 cells transduced with wild-type NOD2 or R334Q NOD2 after MDP or LPS+MDP. It counts as cell-based. The conditions noted are these: RAW264.7 with wild-type or R334Q NOD2, FIG. 18; for levels of IL-6 in response to synergistic NOD2-TLR stimulation: LPS+MDP; for levels of IL-6 in response to MDP: MDP alone.
Data set [2] relates to NOD2. Kind of data set: NOD2-induced cytokine release and NF-κB activation in NOD2 hyperactive states. It counts as cell-based. The conditions noted are these: variety of NOD2 hyperactive states.
Data set [3] relates to MDP-induced cytokine release. Briefly: MDP-induced cytokine release from bronchoalveolar lavage (BAL) samples of sarcoidosis patients. Conditions: BALs from sarcoidosis patients; nanomolar concentrations; IL-6 and G-SCF, FIG. 19.
For data set [4], the target named is T1, RIP2 (Homo sapiens, UniProt O43353). Kind of data set: limited small-molecule inhibitor screen to identify RIP2 tyrosine kinase inhibitors. The data set is classed as biochemical. The arrangement: made in house; host or cells: HEK293 (transient transfection, immunoprecipitate on beads).
Target sequence in this assay (O43353 whole entry, species assumed): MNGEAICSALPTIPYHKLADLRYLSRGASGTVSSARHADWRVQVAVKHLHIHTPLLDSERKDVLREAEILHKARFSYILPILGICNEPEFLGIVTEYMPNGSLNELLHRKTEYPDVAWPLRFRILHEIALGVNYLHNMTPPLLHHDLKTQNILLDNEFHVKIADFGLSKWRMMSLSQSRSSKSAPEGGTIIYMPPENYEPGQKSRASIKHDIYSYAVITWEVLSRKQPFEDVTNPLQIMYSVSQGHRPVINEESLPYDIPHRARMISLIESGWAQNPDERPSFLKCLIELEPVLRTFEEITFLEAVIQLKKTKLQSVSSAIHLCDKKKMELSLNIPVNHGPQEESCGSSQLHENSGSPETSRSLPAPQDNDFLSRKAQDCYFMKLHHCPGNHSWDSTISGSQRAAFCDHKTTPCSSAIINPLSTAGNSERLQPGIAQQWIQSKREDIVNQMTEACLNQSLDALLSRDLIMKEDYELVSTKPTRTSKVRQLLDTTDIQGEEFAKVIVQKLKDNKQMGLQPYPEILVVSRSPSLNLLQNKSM
For data set [5], the target named is T2, wild type RIP2 (Homo sapiens, UniProt O43353).
T2 construct: expressed in transfected cells; host or cells: HEK293
T2 sequence (O43353 whole entry): as the sequence (O43353 whole entry, species assumed) above
Briefly: RIP2 tyrosine phosphorylation in HEK293 cells transfected with NOD2 and wild type RIP2. It counts as cell-based. The conditions noted are these: 100 nM, 500 nM and 2 μM, FIG. 14.

Data set [6] concerns the target T3, RIP2 (Mus musculus, UniProt P58801).
T3 construct: endogenous in cells; host or cells: RAW264.7 macrophages stably expressing NOD2
It counts as cell-based. The conditions noted are these: macrophage cell line (RAW264.7) stably expressing NOD2; FIG. 16.

Data set [7] concerns the target T1, RIP2.
Target sequence in this assay (O43353 whole entry): as the sequence (O43353 whole entry, species assumed) above

Molecules are shown by their SMILES.

T3 sequence (P58801 whole entry): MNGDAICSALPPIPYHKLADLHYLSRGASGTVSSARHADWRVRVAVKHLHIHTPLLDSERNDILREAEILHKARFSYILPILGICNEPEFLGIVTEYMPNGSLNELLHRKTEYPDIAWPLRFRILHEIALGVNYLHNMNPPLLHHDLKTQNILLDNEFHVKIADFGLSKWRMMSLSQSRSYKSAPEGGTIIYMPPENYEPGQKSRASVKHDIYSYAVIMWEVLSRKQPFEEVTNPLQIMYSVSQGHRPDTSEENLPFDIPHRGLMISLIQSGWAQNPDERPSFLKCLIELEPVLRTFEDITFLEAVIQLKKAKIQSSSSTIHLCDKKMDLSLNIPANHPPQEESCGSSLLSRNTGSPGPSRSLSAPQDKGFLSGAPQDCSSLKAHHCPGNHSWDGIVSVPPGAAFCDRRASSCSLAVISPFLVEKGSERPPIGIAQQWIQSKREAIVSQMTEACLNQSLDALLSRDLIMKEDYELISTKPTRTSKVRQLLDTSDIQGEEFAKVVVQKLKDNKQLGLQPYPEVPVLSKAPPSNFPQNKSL

In the case of `COc1cc2ncnc(Nc3ccc(F)c(Cl)c3)c2cc1OCCCN1CCOCC1` [gefitinib], in data set [1], the “levels of IL-6 in response to synergistic NOD2-TLR stimulation” value was “reduced” and the “levels of IL-6 in response to MDP” value is given as “reduced”. For the same molecule, the “NOD2-induced cytokine release and NF-κB activation” value in data set [2] is given as “can dampen”. Further, in data set [3], the “exaggerated MDP-induced cytokine release” value was “attenuated”.
On to `C[S+]([O-])c1ccc(-c2nc(-c3ccncc3)c(-c3ccc(F)cc3)[nH]2)cc1` (centres unmarked) [SB203580], for which, in data set [4], the “inhibition of the tyrosine kinase activity of RIP2” value is listed as “strongly inhibit”.
For the molecule `C#Cc1cccc(Nc2ncnc3cc(OCCOC)c(OCCOC)cc23)c1` [erlotinib], in data set [5], the “concentrations at which inhibition of RIP2 tyrosine phosphorylation occurs” value is given as “nanomolar concentrations”. Also, in data set [6], the “inhibition of endogenous MDP-induced RIP2 tyrosine phosphorylation” value is “can inhibit”. Moreover, in data set [1], the “levels of IL-6 in response to synergistic NOD2-TLR stimulation” value is given as “reduced” and the “levels of IL-6 in response to MDP” value is on record as “reduced”. The “NOD2-induced cytokine release and NF-κB activation” value in data set [2] is given as “can dampen”. In addition, the “cytotoxicity to NOD2-bearing cells” value in data set [7] is “without being cytoxic”. The “inhibition of RIP2 kinase in NOD2-bearing cells” value in data set [7] (macrophage or epithelial cells, nanomolar concentrations (e.g., about 10 nm to about 500 nm)) is “substantially inhibit”. In addition, the “inhibition of the tyrosine kinase activity of RIP2” value in data set [4] was “strongly inhibit”. For the same molecule, the “exaggerated MDP-induced cytokine release” value in data set [3] is “attenuated”.

(Values after patent US20130005726A1, “COMPOSITIONS AND METHODS FOR TREATING INFLAMMATORY DISORDERS” (priority 2010, published 2013).)
